Experimental data published in US20250179113A1, “STEROID COMPOUND FOR TREATING CENTRAL NERVOUS SYSTEM DISEASE, METHOD FOR PREPARING SAME, AND USE AND PHARMACEUTICAL COMPOSITION THEREOF” (HUNAN KYF PHARMACEUTICAL CO., LTD., priority 2022, published 2025).

Assays:
[1] = test system: GABAa receptor chloride ion channel of U251 cells; experiment: MQAE chloride ion fluorescent probe test on U251 cells (GABA-activated chloride channel); type: cell-based, human; details: sample 10 μM (Table 1), GABA in matrix, 1 min after addition, n = 6, vehicle control 42.543 ± 4.202
[2] = test system: mouse model of acute depression; experiment: Tail-suspension test, mouse model of acute depression; type: in vivo, ICR mice; details: 3 days; for Average Duration of Immobile State (Mean ± Standard Deviation), female: female ICR mice, model control 170.57 ± 28.43; for Average Duration of Immobile State (Mean ± Standard Deviation), female / Average Duration of Immobile State (Mean ± Standard Deviation), male: 26.0 mg/kg intraperitoneal, tested 24 h after administration, last 4 of 6 min, n = 5, 26 mg/kg; for Average Duration of Immobile State (Mean ± Standard Deviation), male: male ICR mice, model control 151.23 ± 35.02
Procedure: The experimental animals were administered drugs according to the grouping after 3 days of adaptive feeding. The experimental groups included the model group, the compound TM1 group, and the compound TM2 group. For each group of compounds to be tested, edible oil was used as the vehicle, and the administration route for all animals was intraperitoneal injection. The vehicle control group was given the same volume of edible oil by intraperitoneal injection, and the administration volume for each group was 20 mL/kg.
Brexanolone is used to treat postpartum depression. Its usage and dosage are continuous intravenous injection for 60 hours, with a dosage of 100 mg every 12 hours. At the beginning of the administration, it is necessary to gradually increase the drug use rate, and at the end of the administration, it is necessary to gradually decrease the drug use rate. Therefore, the total drug use within the treatment cycle is 450 mg. Referring to the Brexanolone administration cycle, the administration cycle was set to 3 days, with one administration in the morning every day.
The clinical dosage of Brexanolone is approximately 200 mg/d. Calculated based on an adult weight of 70 kg, the clinical dose of Brexanolone is 2.857 mg/kg/d. The equivalent dose conversion coefficient between humans and mice calculated according to body surface area is 0.0026. Taking the weight of mice as 20 g, the converted dose for mice is: 2.857 mg/kg/d×70 kg×0.0026/0.02 kg=25.999 mg/kg/d, which is counted as 26.0 mg/kg/d.
This study is for validity verification, and single-dose detection is used for the time being. The administration cycle and clinical dosage of the compounds of the present invention refer to the administration cycle and clinical dosage of Brexanolone mentioned above.
The detection indicator is the behavioral changes of mice in the last 4 minutes within 6 minutes, including the time when the immobile state first appears and the duration of the immobile state. Among them, the immobile state refers to the state in which the animal gives up active struggling and remains completely still.
Detection method: 24 hours after the administration of drugs to animals in each group, the animals in each group were placed in the laboratory for 30 minutes to 1 hour to reduce the animals' anxiety about the new environment. Install a video camera in front of the tail suspension box, set the corresponding parameters in the software, and enter the information such as the animal number and status. Take out the experimental animals, mark them with a marker pen at a position […] away from the tip of the tail, fix the tail at the marked position with medical tape. After the tails of the animals in the same group are fixed with tape, quickly suspend the mice in the same group into the tail suspension box device, turn on the behavioral software to record the behavioral situation for 6 minutes, and analyze the behavioral changes in the last 4 minutes.

[3] = test system: GABAA receptor (primary hippocampal neuronal cells); experiment: Whole-cell patch clamp of GABA receptor currents in primary hippocampal neuronal cells; type: cell-based, SD suckling mice; details: average

SMILES: CC1(O)CCC2(C)C(CCC3C2CCC2(C)C(C(=O)Cn4cc(C#N)cn4)CCC32)C1 (stereo not shown) [TM18]
- Average fluorescence intensity (mean ± standard deviation) [1]: 48.621±1.006
- Average Duration of Immobile State (Mean ± Standard Deviation), female [2]: 174.02 ± 18.28 s
- Average Duration of Immobile State (Mean ± Standard Deviation), male [2]: 193.80 ± 15.62 s
- immobility time prolonged compared with the model control group, male animals ([2]; male mice, 26.0 mg/kg i.p.): about 20%
- The percentage increase after calibration with GABA 15 μM as the reference, GABA 15 μM + TM 18 0.01 μM ([3]; TM 18 0.01 μM with GABA 15 μM): 129.85%
- The percentage increase after calibration with GABA 15 μM as the reference, GABA 15 μM + TM 18 0.1 μM ([3]; TM 18 0.1 μM with GABA 15 μM): 288.44%
- The percentage increase after calibration with GABA 15 μM as the reference, GABA 15 μM + TM 18 1 μM ([3]; TM 18 1 μM with GABA 15 μM): 108.82%

SMILES: CC1(O)CCC2(C)C(CCC3C2CCC2(C)C(C(=O)Cn4cc(C#N)cn4)CCC32)C1 (stereo not shown) [TM17]
- Average fluorescence intensity (mean ± standard deviation) [1]: 47.499±2.240
- Average Duration of Immobile State (Mean ± Standard Deviation), female [2]: 198.88 ± 15.08 s
- Average Duration of Immobile State (Mean ± Standard Deviation), male [2]: 177.67 ± 20.05 s
